We go through three compounds from paper PMC10892093 (Pharmaceutics, 2024).

Where two headings read alike, the source gives them in different places.

In data set [1] the target is T1, UGT1A9 (Homo sapiens, UniProt O60656).
T1 construct: expressed in transfected cells; microsomal fraction
T1 sequence (O60656 26-530): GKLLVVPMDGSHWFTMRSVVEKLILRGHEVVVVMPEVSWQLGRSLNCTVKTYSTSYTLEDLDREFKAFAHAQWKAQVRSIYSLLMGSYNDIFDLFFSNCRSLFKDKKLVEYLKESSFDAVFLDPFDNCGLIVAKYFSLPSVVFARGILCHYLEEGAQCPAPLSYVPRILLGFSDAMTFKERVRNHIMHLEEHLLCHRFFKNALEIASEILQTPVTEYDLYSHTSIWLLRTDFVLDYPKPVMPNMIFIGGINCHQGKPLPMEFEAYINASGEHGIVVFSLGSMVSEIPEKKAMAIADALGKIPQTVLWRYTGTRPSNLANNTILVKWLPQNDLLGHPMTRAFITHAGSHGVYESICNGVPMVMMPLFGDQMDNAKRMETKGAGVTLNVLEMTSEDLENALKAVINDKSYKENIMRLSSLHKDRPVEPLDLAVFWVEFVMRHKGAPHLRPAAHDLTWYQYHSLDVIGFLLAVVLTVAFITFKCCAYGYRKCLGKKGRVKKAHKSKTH
The data set is described as follows: Inhibition of R-oxazepam glucuronidation in rUGT1A9 microsomes (UGT-overexpressing HEK293). The format is biochemical. As to conditions: for IC50: rUGT1A9. The method, then: (§1) Human embryonic kidney cells (HEK293) stably overexpressing the single UGTs 1A9, 2B7, and 2B15 have been previously established and described. Cells were grown in DMEM supplemented with 350 μg/mL of geneticin and 10% FBS and harvested in PBS. Microsomal fractions of UGT-overexpressing cell lines were prepared by differential centrifugation using previously described protocols. Briefly, cell homogenates were prepared by resuspending pelleted cells in PBS, followed by five rounds of freeze–thaw cycles prior to homogenization. Recombinant microsomes (rUGTs) were prepared by centrifuging the cell homogenate at a low speed (9000× g for 30 min) followed by ultracentrifugation (34,000× g for 60 min), with the total protein subsequently determined using a BCA assay. Recombinant microsomes (UGT1A9 and 2B7) and homogenates (UGT2B15) were used for inhibition studies.
(§2) A Waters Corp BEH C18 Acquity UPLC column (1.7 µM, 2.1 × 100 mm) was used at a constant temperature of 40 °C for chromatographic separation. An elution gradient was used for 6.5 min with mobile phases A (5 mM ammonium formate) and B (100% methanol) under the following conditions: 90% A for 0.5 min, followed by a linear gradient for 3 min to 60% A, 1 min at 5% A, and re-equilibration for 1 min at 90% A.
(§3) The reaction was initiated by the addition of 4 mM UDPGA as the cofactor and incubated for 2 h at 37 °C. The reaction was terminated by adding 30 µL of an ice-cold stop solution (acetonitrile/methanol; 1:1). The reaction mixtures were centrifuged at 17,000× g for 30 min at 4 °C, and the supernatant was transferred to UPLC sample glass vial for analysis using UPLC–MS/MS (described above). […] As a positive control for inhibition assays, ketoconazole (10 μM and 100 µM) was used as a potential inhibitor of the UGTs 1A9, 2B7, and 2B15. Reactions containing only the cannabinoid vehicle (3% methanol) and without any inhibitor (cannabinoids) were used as a baseline reaction for 100% enzyme activity, while a reaction without UDPGA was used as a negative control. All experiments were performed in three independent experiments.
(§4) Determination of IC50 and Ki Values. […] The nonspecific binding constants (fu,inc) for cannabinoids in HEK293 microsomes, HLM, and HKM were previously determined and used to calculate the inhibition by unbound (‘free’) cannabinoid in each reaction. A nonlinear regression analysis and the following equation were used to calculate the IC50 values:(1) y = Bottom +Top − Bottom / 1 + 10^x − LogIC50A where ‘Bottom’ is the maximum observed inhibition (lowest percent activity) and ‘Top’ is the minimum observed inhibition (highest percent activity) for a given cannabinoid.

For data set [2] the following is noted: cited from earlier work.
For data set [3], the target named is T2, UGT2B7 (Homo sapiens, UniProt P16662).
T2 construct: expressed in transfected cells; microsomal fraction
T2 sequence (P16662 24-529): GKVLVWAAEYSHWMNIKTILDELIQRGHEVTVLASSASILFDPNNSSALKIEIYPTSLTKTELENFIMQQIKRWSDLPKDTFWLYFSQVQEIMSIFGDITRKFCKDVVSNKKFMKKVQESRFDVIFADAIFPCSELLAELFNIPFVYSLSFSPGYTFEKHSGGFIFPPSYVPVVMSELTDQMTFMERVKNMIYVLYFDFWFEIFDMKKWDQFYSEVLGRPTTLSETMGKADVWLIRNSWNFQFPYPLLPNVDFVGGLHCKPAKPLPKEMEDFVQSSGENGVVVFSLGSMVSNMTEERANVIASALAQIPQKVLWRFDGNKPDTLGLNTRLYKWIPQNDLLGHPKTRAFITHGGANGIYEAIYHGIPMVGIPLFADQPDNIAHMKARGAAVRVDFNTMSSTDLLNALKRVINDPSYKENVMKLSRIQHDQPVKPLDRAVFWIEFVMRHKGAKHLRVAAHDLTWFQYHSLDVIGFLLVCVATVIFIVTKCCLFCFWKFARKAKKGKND
The data set is described as follows: Inhibition of R- and S-oxazepam glucuronidation in rUGT2B7 microsomes (UGT-overexpressing HEK293). In kind it is biochemical. The following applies: for inhibition at 2 h, 100 µM: human, pH 7.4, rUGT2B7 microsomes; for IC50: rUGT2B7. The method, then: as §1, §2, §3, §4

The target in data set [4] is T3, UGT2B15 (Homo sapiens, UniProt P54855).
T3 construct: expressed in transfected cells; cell homogenate
T3 sequence (P54855 24-530): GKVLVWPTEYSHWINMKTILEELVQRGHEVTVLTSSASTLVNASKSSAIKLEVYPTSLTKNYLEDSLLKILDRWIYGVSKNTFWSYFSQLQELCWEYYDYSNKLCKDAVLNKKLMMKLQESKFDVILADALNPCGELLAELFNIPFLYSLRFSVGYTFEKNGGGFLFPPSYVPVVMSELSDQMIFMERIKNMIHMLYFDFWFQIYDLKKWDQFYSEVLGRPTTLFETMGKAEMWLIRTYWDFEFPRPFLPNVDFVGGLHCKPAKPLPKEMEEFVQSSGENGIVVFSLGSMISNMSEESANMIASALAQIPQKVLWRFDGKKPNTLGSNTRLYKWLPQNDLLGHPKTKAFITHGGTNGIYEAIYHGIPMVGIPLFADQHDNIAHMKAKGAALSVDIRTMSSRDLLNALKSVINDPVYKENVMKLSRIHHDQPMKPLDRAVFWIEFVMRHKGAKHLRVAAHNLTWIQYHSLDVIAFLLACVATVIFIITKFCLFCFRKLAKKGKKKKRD
Briefly: Inhibition of S-oxazepam glucuronidation in rUGT2B15 homogenate/microsomes (UGT-overexpressing HEK293). As to conditions: for IC50: rUGT2B15. The format is biochemical. The method, then:
as §1, §2, §3, §4

Where [5] appears, read: IC50 corrected with fu,inc, read-out: IC50,u, R-Oxazepam Glucuronide.
[6] abbreviates: read-out: IC50, R-Oxazepam Glucuronide.
Where [7] appears, read: overexpressing HEK293 cell lines.
The mark [8] stands for this setting: IC50 corrected with fu,inc, read-out: IC50,u, S-Oxazepam Glucuronide.
Setting [9] is: read-out: IC50, S-Oxazepam Glucuronide.
Where [10] appears, read: rUGT1A9 microsomes, 100 µM cannabinoid, vs control without cannabinoid.
[11] abbreviates: rUGT2B7 microsomes, 100 µM cannabinoid.

In the case of `C=C(C)[C@@H]1CCC(C)=C[C@H]1c1c(O)cc(CCCCC)cc1O` [CBD, cannabidiol], the inhibition (in general, the drop in the measured response relative to a control, in per cent) at 2 h, 10 µM in data set [1] (human, pH 7.4, rUGT1A9 microsomes, 10 µM cannabinoid, vs control without cannabinoid, read-out: Inhibition of R-oxazepam glucuronide formation) was 98%; in data set [4] (human, pH 7.4, rUGT2B15 microsomes, 10 µM cannabinoid, range over the four cannabinoids, read-out: Inhibition of S-oxazepam glucuronide formation), 40 to 66%. The inhibition at 2 h, 100 µM in data set [1] (human, pH 7.4, rUGT1A9 microsomes, 100 µM cannabinoid, vs control without cannabinoid, read-out: Inhibition of R-oxazepam glucuronide formation) was 99%; in data set [3] (100 µM cannabinoid, read-out: Inhibition of R-oxazepam glucuronidation), 95%; in data set [3] (100 µM cannabinoid, read-out: Inhibition of S-oxazepam glucuronidation), 89%; in data set [4] (human, pH 7.4, rUGT2B15 microsomes, 100 µM cannabinoid, range over the four cannabinoids, read-out: Inhibition of S-oxazepam glucuronide formation), 83 to 91%. In addition, the IC50 (commonly the concentration at which inhibition is half-maximal) in data set [1] (setting [5]) came to 53 ± 11 nM; in data set [1] (setting [6]), 1400 ± 290 nM; in data set [4] (setting [8]), 2000 ± 350 nM; in data set [4] (setting [9]) it was 54000 ± 9000 nM. Also, the “unbound fraction (fu,inc)” value was 0.062 ± 0.009 in data set [2] (incubation mixtures with HKM), 0.051 ± 0.008 in data set [2] (incubation mixtures with HLM) and 0.038 ± 0.002 in data set [2] (setting [7]).

Take “11-hydroxy-Δ^9-tetrahydrocannabinol [11-OH-THC]”: the IC50 in data set [1] (setting [5]) came out at 1000 ± 600 nM; in data set [1] (setting [6]), 13000 ± 7700 nM; in data set [3] (setting [5]), 770 ± 640 nM; in data set [3] (setting [8]), 530 ± 260 nM; in data set [3] (setting [6]), 9900 ± 8200 nM; in data set [3] (setting [9]), 6800 ± 3300 nM. Further, the values for the IC50 in data set [4] (setting [8]) and in data set [4] (setting [9]) were 4500 ± 2100 nM and 58000 ± 27000 nM, respectively. Besides, the “Inhibition of R-oxazepam glucuronide formation” value in data set [1] (setting [10]) is 87%. Also, the “unbound fraction (fu,inc)” value in data set [2] (incubation mixtures with HKM) was 0.094 ± 0.014; in data set [2] (incubation mixtures with HLM), 0.094 ± 0.014; in data set [2] (setting [7]), 0.078 ± 0.042. The “Inhibition of R-oxazepam glucuronidation” value in data set [3] (setting [11]) is given as 80%. The “Inhibition of S-oxazepam glucuronidation” value in data set [3] (setting [11]) is 81%.

`CCCCCc1cc(O)c2c(c1)OC(C)(C)[C@@H]1CCC(C)=C[C@@H]21` [THC, Δ^9-tetrahydrocannabinol]: the IC50 was 500 ± 310 nM in data set [1] (setting [5]), 840 ± 420 nM in data set [4] (setting [8]) and 20000 ± 10000 nM in data set [4] (setting [9]). In data set [1] (setting [10]), the “Inhibition of R-oxazepam glucuronide formation” value is listed as 83%. The “unbound fraction (fu,inc)” value is given as 0.052 ± 0.005 in data set [2] (incubation mixtures with HKM), 0.048 ± 0.002 in data set [2] (incubation mixtures with HLM) and 0.042 ± 0.003 in data set [2] (setting [7]). The “Inhibition of R-oxazepam glucuronidation” value in data set [3] (setting [11]) stood at 50%.
